Measurements taken from patent US20140228299A1, “PROPHYLACTIC AND THERAPEUTIC AGENT FOR NEUROLOGICAL DISEASES USING LIPOPROTEINS AND PROPHYLACTIC AND THERAPEUTIC METHOD FOR NEUROLOGICAL DISEASES” (National University Corporation Tokyo Medical and Dental …, priority 2011, published 2014).

Test system: intracellular Ca2+ (LRP1 / NMDA receptor) in RGC
Test: Intracellular Ca2+ increase in RGC after glutamate+glycine (Fluo-8 fluorescence)
Type: cell-based, rat
Details: E-LP 100 ng protein/mL, 15 minutes before 300 μM glutamate+10 μM glycine
Protocol: The inflow of calcium into RGC was confirmed in the manner as described below. Specifically, RGC was incubated on a microdish at least for 14 days, followed by incubation at 37° C. for 30 minutes using 3 μM Fluo-8 acetoxymethyl ester (AAT Bioquest, Sunnyvale, Calif.). The resulting cells were washed twice with 500 μl of the above HBSS, and 300 μM glutamate and 10 μM glycine were poured. The fluorescence images were taken at every 500 msec by ORCA-R2 digital camera (Hamamatsu Photonics, Hamamatsu, Japan) and analyzed by MetaFluor fluorescence ratio imaging software (Molecular Devices, Sunnyvale, Calif.).
RGC was labeled with Fluo-8 acetoxymethyl ester for 30 minutes, and Glu (300 μM glutamate+10 μM glycine) was added thereto. Fluorescent ratio images were as represented by colors indicated by the color index shown at the lower side of FIG. 12A. The color was represented as Ratio 0 and Ratio 2 corresponding to the base fluorescent intensity (Ratio 1) before Glu stimulation. The panels on the left and right sides indicate Glu and Glu+E-LP, respectively. […] The scale bar is 80 μm.
FIGS. 12B and C show variations of fFuo-8 fluorescence represented by ΔF/F0. In the figures, F0 indicates the base fluorescence intensity before Glu stimulation. * and **: p<0.005 and p<0.0001 (Glu vs. Glu+E-LP). […]

increase in intracellular Ca2+: inhibits
Substance: E-LP: reconstituted lipoprotein of 1-palmitoyl-2-oleyl-glycerophosphocoline, cholesterol and recombinant human apolipoprotein E, molar ratio 100:10:1 or 100:0:1
